According to patent US12233087B2, “Palladium hyaluronic acid particles and methods of managing cancer or angiogenic conditions” (Emory University, priority 2018, dated 2025):
Where two headings read alike, the source gives them in different places.

Assays:
[1] = Dispersion of free vs HANP-loaded Tris DBA-Pd in water, FBS and cell culture media; format: physicochemical
Procedure: Hyaluronic Acid (HA)-5β-cholanic acid conjugate was synthesized by linking the carboxyl group of HA with the amino group on 5β-cholanic acid in the presence of EDC and NHS (FIG. 1). Hyaluronic Acid nanoparticles/Tris-DBA palladium were prepared. Water-insoluble Tris DBA-Pd was physically encapsulated into the hydrophobic cavities by a high-pressure homogenizer. This allowed for the dispersion of Tris DBA-Pd under physiological conditions. After freeze-drying, 40 mg of HANPs were dispersed in 8 mL of distilled water and 10 mg of Tris DBA-Pd was dissolved in 2 mL dimethyl sulfoxide (DMSO). The Tris DBA-Pd solution was slowly added into the HANP in high pressure homogenizer and homogenized for 5 min. Finally, the resulting mixture was dialyzed for 4 hours against an excess amount of distilled water to remove unloaded drugs and organic solvent, followed by lyophilization.
To verify the encapsulation of Tris DBA-Pd, the size changes were compared before and after loading.

[2] = test system: LM36R human melanoma cells; test: LM36R vemurafenib-resistant melanoma xenograft tumor growth in nude mice; format: in vivo, athymic Nu/Nu nude male mice; details: 5 mg of drug/kg per injection, bi-weekly tail vein injections, 4 weeks, n=5 per group; p-value 0.048 at week 4
Procedure: Nude male mice were inoculated with LM36R (5.0×10^5 cells), a human cell line of melanoma that is resistant to vemurafenib, and then treated with HANPs over the course of four weeks.
Vemurafenib-resistant LM36R human melanoma cells were inoculated (5.0×10^5 cells/mouse) into the right flank of athymic Nu/Nu nude male mice (Crl:NU-Foxn1^nu strain code 088)) n=5 per group, and progression of tumor was recorded using the volume model of length×(width)×0.52. Mice were split into four groups consisting of a control (empty HANP), free Tris DBA-Pd, HANP with Tris DBA-Pd, and HANP with Tris DBA-Pd and aIGF1R antibody. Free Tris DBA-Pd was first dissolved in DMSO and then mixed with Kolliphor EL™. At last, the mixture was diluted by H2O before injection at concentration of 1 mg/mL of DBA. The ratio of DMSO, Kolliphor EL™ and H2O was controlled as 1:2:7 (v/v). The treatments were administered through bi-weekly tail vein injections over the course of 4 weeks (5 mg of drug/kg per injection). Tumor samples were analyzed for CD44 (hyaluronate receptor) expression by immunohistochemistry.

LM36R xenograft tumor = test: Gene array / whole-transcriptome expression analysis of treated tumors; format: in vivo, human
Procedure: Gene array was performed on all tumors. […] By varying the delivery process of a single drug, one might be able to prevent resistance.
RNA Extraction and QC: RNA was extracted using the Qiagen miRNEasy™ kit with on column DNAse treatment. Tissue was lysed and homogenized in Qiazol™ with a rotor-stator probe homogenizer for 40 seconds or until fully disrupted (1 ml Qiazol™ per 100 mg of tissue). RNA was eluted in 50 ul nuclease free water. One microliter was used to determine OD (optical density) values on a Nanodrop 1000. One microliter was used to assess sample profiles on the Agilent 2100 using the RNA 6000 Nano assay. Total RNA (250 ng) was amplified and labeled using the ThermoFisher Scientific Illuina™ TotalPrep™ RNA Amplification kit. Labeled cRNA was hybridized to Illumina HT12™ bead array. Image acquisition and data extraction were performed.

[3] = general statement, water, cited from earlier work
melanoma = details: Clin Cancer Res. 2008, 14:5743-5748; cited from earlier work
[4] = molecular target: N-myristoyltransferase 1 (NMT1) (Homo sapiens, UniProt P30419); details: reported in the literature; cited from earlier work
[5] = at 25° C.; cited from earlier work
IGF1R = test: Immunohistochemistry of tumor xenografts for IGF1R; format: in vivo, human; details: IHC, LM36R xenograft
Procedure: Immunohistochemistry was performed to qualitatively assess expression of target genes. […] To assess the impact of our treatments on IGF1R expression, IHC was used to stain the tumor xenografts with antibodies against IGF1R.

N-myristoyltransferase 1 (NMT1), sequence (P30419 whole entry, species assumed): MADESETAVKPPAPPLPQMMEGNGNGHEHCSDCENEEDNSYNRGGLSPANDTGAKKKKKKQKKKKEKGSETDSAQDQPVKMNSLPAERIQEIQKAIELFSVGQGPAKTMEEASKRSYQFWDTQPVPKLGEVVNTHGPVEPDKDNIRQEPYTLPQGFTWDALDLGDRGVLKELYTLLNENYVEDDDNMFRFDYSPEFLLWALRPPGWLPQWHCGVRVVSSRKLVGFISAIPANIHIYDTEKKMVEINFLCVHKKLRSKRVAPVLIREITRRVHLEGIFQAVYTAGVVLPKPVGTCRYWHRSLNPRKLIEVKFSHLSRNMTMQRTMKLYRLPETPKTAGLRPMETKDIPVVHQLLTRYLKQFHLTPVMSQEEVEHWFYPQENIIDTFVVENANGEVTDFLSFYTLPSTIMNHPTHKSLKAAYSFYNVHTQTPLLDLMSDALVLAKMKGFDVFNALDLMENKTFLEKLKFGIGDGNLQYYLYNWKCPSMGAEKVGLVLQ

O=C(/C=C/c1ccccc1)/C=C/c1ccccc1.O=C(/C=C/c1ccccc1)/C=C/c1ccccc1.O=C(/C=C/c1ccccc1)/C=C/c1ccccc1.[Pd].[Pd] [free Tris DBA-Pd, Tris(dibenzylideneacetone)dipalladium]
behaviour in water, FBS, and cell culture media (precipitation / dispersion) [1]: immediately precipitated | inhibition of growth of LM36R tumors [2]: showed efficacy | SCG2 (secretogranin 2) expression (LM36R xenograft tumor): downregulated | solubility ([3]; listed as Tris (dibenzylideneacetone) dipalladium): poor solubility | solubility ([3]; listed as Tris DBA-Pd): Water-insoluble | effect on melanoma growth (melanoma): effective against melanoma growth | activity against NMT1 [4]: activity against the enzyme N-myristoyltransferase 1

CCCCCCCC [octane]
percent solubility in water by weight [5]: 0.63×10^−4 % w/w

Tris DBA-Pd HANPs coupled with anti-IGF1R antibodies: Tris DBA-Pd HANP with anti-IGF1R monoclonal antibodies (Dalotuzumab) conjugated onto the surface
intensity of IGF1R staining (IGF1R): decreased the intensity of IGF1R staining more so than the other groups
